Source: patent publication US20230372433A1, “NANOPARTICLE FOR ANTI-CANCER PEPTIDES AND USES THEREOF” (KING'S COLLEGE LONDON, priority 2020, published 2023)

What was measured:
[1] = tested on: HMLER (human breast cancer bulk cell); test: MTT cytotoxicity assay, HMLER; format: cell-based; conditions: 72 hr, MTT; read-out: IC50 HMLER
[2] = tested on: HMLER-shEcad (human breast cancer stem cell); test: MTT cytotoxicity assay, HMLER-shEcad; format: cell-based; conditions: 72 hr, MTT; read-out: IC50 HMLER-shEcad
[3] = tested on: MCF-10A (human breast epithelial cell); test: cells; conditions: read-out: IC50 MCF-10A; 72 hr, MTT
Excerpt: HMLER (human mammary endothelial cancer cells), HMLER-shEcad (human mammary endothelial cancer stem cells), and MCF-10A (healthy human mammary endothelial) cells were maintained in Mammary Epithelial Cell Growth Medium (MEGM) with supplements and growth factors: bovine pituitary extract (BPE), hydrocortisone, human epidermal growth factor (hEGF), insulin, and gentamicin/amphotericin-B. HEK293T (human embryonic kidney cell), and U2OS (homo sapiens bone osteosarcoma) cells were maintained in Dulbecco's Modified Eagle's Medium (DMEM) with a final concentration of 10% fetal bovine serum. The cells were grown in T75 flask at 310 K in a humidified atmosphere containing 5% CO2.
The colourimetric MTT (3-(4,5-dimethylthiazol-2-yl)-2,5-diphenyltetrazolium bromide) assay was used to determine the toxicity of the anti-cancer peptides and conventional anti-cancer drugs. 5×10^3 cells were seeded in each well of a 96-well microplate. The cells were incubated overnight. Elevated concentrations of the compounds (0, 0.1, 0.2, 0.4, 0.8, 1.6, 3.1, 6.3, 12.5, 25, 50 and 100 μM) were added and incubated for 72 hr with a total volume 200 μL. The stock solutions of the compounds were prepared as 5 mM solutions in DMSO and diluted using media or in pure water. The final concentration of DMSO in each well was either 0.5% or 0% and this amount was present in the untreated control. After 72 hr, 20 μL of a 4 mg/mL solution of MTT in PBS was added to each well, and the plate was incubated for an additional 4 hr. The MEGM/MTT mixture was aspirated and 100 μL of DMSO was added to dissolve the resulting purple formazan crystals. The absorbance of the solutions in each well was read at 550 nm wavelength. Absorbance values were normalized to either DMSO-containing or non DMSO-containing control wells and plotted as concentration of test compound versus % cell viability. ICso values were interpolated from the resulting dose dependent curves.
The peptides were screened against several different human cell lines and their cytotoxicity were determined. Cell lines utilised include MCF-10A (human breast epithelial cell), HMLER (human breast cancer bulk cell), HMLER-shEcad (human breast cancer stem cell), HEK293T (human embryonic kidney cell), and U2OS (human bone osteosarcoma).

[4] = tested on: U2OS (human bone osteosarcoma); test: MTT cytotoxicity assay, U2OS; format: cell-based; conditions: 72 hr
[5] = tested on: HEK293T (human embryonic kidney cell); test: MTT cytotoxicity assay, HEK293T; format: cell-based; conditions: 72 hr, MTT; read-out: IC50 HEK293T
[6] = Tryptophan fluorescent binding assay, POPC vesicles; conditions: 50 μM peptide, PBS pH 7.4
Method: (§1) In brief, 50 μM peptides were fixed and incubated with titrated POPC vesicles (black) or 3POPC/1POPG vesicles (grey) at concentrations of 0, 12.5, 25, 50, 100, 250, 500, 1000, 2500, and 5000 μM in phosphate buffered saline (1X, pH 7.4). The lipid concentration that causes 50% peptide binding was determined using a tryptophan fluorescent binding assay and the values are shown as lipid per peptide.
(§2) The lipids 1-palmitoyl-2-oleoyl-sn-glycero-3-phosphocholine (POPC), 1-palmitoyl-2-oleoyl-snglycero-3-phospho-(1′-rac-glycerol) (POPG) were purchased from Avanti Polar Lipids and dissolved in chloroform. Large unilamellar vesicles (LUVs) were produced by extrusion through 100 nm pore filter using an extruder and filters purchased from Avanti Polar Lipids.
(§3) Peptides (50 μM) and POPC/POPG LUVs (600 μM) were prepared in 10 mM phosphate buffer (pH 7.0). The solutions were incubated and measured after 60 minutes. Excitation was fixed at 280 nm (slit 9 nm) and emission was collected from 300 to 450 nm (slit 9 nm). The spectra were recorded using a Synergy H1 Hybrid Multi-Mode Reader (FIG. 3A) and Cytation™ 5 Cell Imaging Multi-Mode Reader (FIG. 2) from BioTek and were averaged over 3 scans.
(§4) Table 3 illustrates the lipid concentration-induced 50% peptide binding onto a liposome. 50 μM peptide was fixed and incubated with titrated lipid (POPC vesicles or 3POPC/1POPG vesicles) at concentrations of 0, 12.5, 25, 50, 100, 250, 500, 1000, 2500, and 5000 μM in phosphate buffered saline (1X, pH 7.4). The lipid concentration that causes 50% peptide binding was determined using tryptophan fluorescent binding assay and the values are shown as lipid per peptide. IN-terminus is free, C-terminus: —W—NH2.

[7] = Tryptophan fluorescent binding assay, 3POPC/1POPG vesicles; conditions: 50 μM peptide, PBS pH 7.4
Method: as §1, §2, §3, §4

[8] = ANTS/DPX liposome leakage assay, POPC vesicles; format: biochemical; conditions: 0.5 mM vesicles
Method: (§5) In brief, 0.5 mM POPC vesicles (grey) or POPC:POPG vesicles (ratio 3:1, black) were incubated with peptide concentrations of 0, 0.02, 0.04, 0.08, 0.16, 0.32, 0.64, 1.25, 2.5, 5, 10, and 20 μM in each A) hydrochloric acid-adjusted phosphate buffered saline (1X, pH 4.8) and B) phosphate buffered saline (1X, pH 7.4).
as §2
(§6) 5 mM ANTS (8-aminonaphthalene-1,3,6-trisulfonic acid, disodium salt) and 12.5 mM DPX (p-xylene-bis-pyridinium bromide) were entrapped in 0.1 μm diameter extruded vesicles with lipids. Gel filtration chromatography using a Sephadex G-100 (GE Healthcare Life Sciences Inc) was used to remove external free ANTS/DPX from LUVs with entrapped contents. LUVs were diluted to 0.5 mM and used to measure the leakage activity by addition of aliquots of peptides. Leakage was measured after 3 h incubation. 10% Triton was used as the positive control to measure the maximum leakage of the vesicle. Fluorescence emission spectra were recorded using excitation and emission wavelength of 350 nm and 510 nm for ANTS/DPX using a BioTek Synergy H1 Hybrid Multi-Mode Reader.
(§7) Table 4 illustrates peptide concentration-induced 50 ANTS/DPX liposome leakage. 0.5 mM POPC and 3POPC/1POPG vesicles were fixed and incubated with titrated peptide concentration (0, 0.02, 0.04, 0.08, 0.16, 0.32, 0.64, 1.25, 2.5, 5, 10, and 20 μM) each in phosphate buffered saline (1X, pH 7.4) and hydrochloric acid-adjusted phosphate buffered saline (1X, pH 4.8). The values are shown as lipid per peptide. IN-terminus is free, C-terminus: —W—NH2.

[9] = ANTS/DPX liposome leakage assay, 3POPC/1POPG vesicles; format: biochemical; conditions: 0.5 mM vesicles
Method: as §5, §2, §6, §7

Sequence | IC50 [1] [µM] | IC50 [2] [µM] | IC50 [3] [µM] | IC50 [4] [µM] | IC50 [5] [µM] | Lipid Concentration-induced 50% Peptide Binding (L/P) POPC Vesicle [6] [L/P] | Lipid Concentration-induced 50% Peptide Binding (L/P) 3POPC/1POPG Vesicle [7] [L/P] | Peptide Concentration-induced 50% ANTS/DPX leakage at pH 4.8 (L/P) POPC Vesicle [8] [L/P] | Peptide Concentration-induced 50% ANTS/DPX leakage at pH 7.4 (L/P) POPC Vesicle [8] [L/P] | Peptide Concentration-induced 50% ANTS/DPX leakage at pH 4.8 (L/P) 3POPC/1POPG Vesicle [9] [L/P] | Peptide Concentration-induced 50% ANTS/DPX leakage at pH 7.4 (L/P) 3POPC/1POPG Vesicle [9] [L/P]
GLLDLLKLLLEAAG [DKE] | 2.1 | 1.57 ± 0.33 | 4.75 ± 0.49 | 9.93 ± 0.25 | 7.8 ± 1.41 | 0.56 | 0.46 | 21 | 747 | 469 | 411
GLLDLLHLLLHAAG [DHH] | 21.4 ± 2.47 | 11.9 ± 0.14 |  | 55.9 ± 18.9 | 6.4 ± 0.42 | 0.67 | 0.28 | 106 | 684 | 98 | 692
GLLHLLHLLLHAAG [HHH] | 21.1 ± 6.93 | 9.5 ± 0.99 | 79 ± 11.3 |  | 30.6 ± 4.81 | 0.46 | 0.82 | 173 | 1133 | 50 | 469
GLDDLAKLLLKLAG [25B2, reference compound] | 8.36 ± 0.61 | 11.7 ± 0.49 | 26.7 ± 3.33 | 54 ± 8.43 | 25.2 ± 2.19 |  |  |  |  |  | 
GLLKLLELLLHAAG [KEH] | 3.3 ± 0.42 | 2.35 ± 0.07 | 20 | 49.2 ± 5.3 | 5.65 ± 0.07 | 1.00 | 0.50 | 188 | 995 | 68 | 286
GLLHLLHLLLEAAG [HHE] | 16.7 ± 2.26 | 10.8 ± 0.78 |  | 53.2 ± 5.3 | 18.4 ± 3.75 | 1.00 | 0.75 | 143 | 842 | 113 | 411
GLLELLHLLLHAAG [EHH] | 25.4 ± 2.76 | 16.1 ± 3.18 |  |  | 5.9 ± 0.14 | 0.94 | 0.69 | 386 | 1043 | 80 | 981
GLLHLLELLLKAAG [HEK] | 2.35 ± 1.06 | 3.45 ± 2.19 | 29.8 ± 7.35 |  | 6.95 ± 1.63 | 0.44 | 0.46 | 97 | 755 | 411 | 386
GLLHLLELLLHAAG [HEH] | 28.6 ± 10.8 | 11 ± 1.06 |  |  | 8.8 ± 1.7 | 0.88 | 3.50 | 173 | 995 | 24 | 505
